Laboratory results as given in patent US20040132095A1, “Method of selecting antimicrobial agent and method of using the same” (priority 2001, published 2004).

Columns and labels:
Chaetomium elatum = test: Data base search for antimicrobial agent, filamentous fungus (Example 6); type: cell-based
Deinococcus geothermalis [1] = test: Data base search and sterilizing experiment (Example 9); type: cell-based
Deinococcus geothermalis [2] = test: Data base search and sterilizing experiment, Example 2; type: cell-based; conditions: data base search, confirmed by sterilizing experiment
slime [3] = test: Monitoring demonstrators (slime testers) at paper machine of factory D (Example 3)
Experimental: Since the machine construction is similar, this machine would suffer from same trouble by occurrence of pink-colored slime after a prolonged operation. Therefore, monitoring of machine by prior practice was proceeded more […] the same time, the analysis of the microbial biota of white water same as in the above test method was performed at a more frequent interval, namely, at an interval of 7-14 days (with increase in the number of isolated strains to 48). […] On the other hand, white water devoid of DBNPA content was reserved by storing in a storage reservoir the white water taken from its supply line during a time interval discrepant from the DBNPA injection period, to preserve a reagent-free white water for the test.

[4] = tested on: microbe belonging to a genus Microbacterium (microbe number 2401); test: Data base search for antimicrobial agent, dominant microbe of yellow-colored slime (Example 4); type: cell-based
Sphingomonas = test: Data base search and sterilizing experiment (Example 9); type: cell-based
[5] = tested on: pink-colored bacterial slime / Deinococcus geothermalis; test: Slime control treatment at paper manufacturing factory D, white water circulation system (Example 2); conditions: slime formed during long term slime control with DBNPA based agent
slime [6] = test: Laboratory torque type slime formation testing apparatus, artificial white water (Example 1); type: cell-based
Description: A torque type slime formation testing apparatus was used, which is described in Japanese Patent Kokai Hei 9-75065 A. The testing apparatus is constructed from a stationary outer cylinder and a rotatable inner cylinder disposed concentrically with the outer cylinder leaving a free space therebetween for allowing flow of water therein while rotating the inner cylinder so as to permit to grow slime formed on the surface of the inner […]. To this testing apparatus, an artificial white water (containing 142 mg/liter of soluble starch and 11.6 mg/liter of ammonium sulfate and having a pH of 7.0) was supplied continuously at a temperature of 30° C. so as to maintain a residence time in the apparatus of 20 minutes, while adding thereto intermittently a slime control agent containing as the main component DBNPA (dibromonitrilopropionamide) three times a day each for a duration of 15 minutes at a contact concentration of 2.5 mg/liter. […] Each isolated strain was taken up on a platinum loop and was suspended in 0.4 ml of TE buffer solution (10 mM Tris-HCl, 1 mM EDTA, pH 8.0) retained allotted in a 1.5 ml microcentrifugal tube. Based on the above results, test experiment was carried out under the same experimental condition except that HPGHC was used as the slime control agent so as to maintain the concentration thereof in the system at 0.3 mg/liter. […] This HPGHC-treated slime collected at this occasion was tested by analysis of microbial biota thereof in the same manner as above, whereby Microbacterium sp. was not detected.

slime in CP tube = test: Slime control treatment of clear white water pit / CP line, paper machine Y (Example 11); conditions: intermittent introduction into the clear white water pit twice a day
Experimental: In a paper machine Y (a daily throughput of 410 tons, slightly coated paper, pH 7.5) of a paper manufacturing factory B, occurrence of light brown-colored defects having sizes of about 5 mm diameter was recognized frequently since 11th day from the start of operation, caused to result in cessation of operation. The defect portions were cut out from the paper and three cut out pieces (about 8.1 mg) were cut into 2 mm squares, which were placed in a 2 ml microcentrifugal tube made of plastic material. To this tube, 1 ml of a DNA-extracting buffer solution (100 mM Tris-Cl, 100 mM EDTA-Na, 100 mM Na2HPO4 and 1.5 M NaCl (pH 8.0)) was added, followed by standing still at room temperature for 30 minutes to cause the paper pieces to be impregnated sufficiently with the solution.
From the above analysis results, it was assumed that the defect was caused by introduction of the slime formed in CP tube into the papermaking process course upon detachment or the like. In the CP line, clear white water obtained by treating white water through a polydiscfilter was used, which had hitherto not been subjected to a slime control treatment. Therefore, treatment was now applied by intermittent introduction of a slime control agent containing as the main component 2,2-dibromo-3-nitrilopropionamide into the clear white water pit twice a day.

[7] = tested on: all the other isolated bacteria; test: Data base search / sterilizing experiment, other isolated strains of Example 1 slime; type: cell-based; conditions: strains isolated from slime of Example 1
[8] = tested on: Microbacterium sp. (microbe number 6354); test: Data base search for antimicrobial agent, confirmed by sterilizing experiment, dominant microbe of Example 1 slime; type: cell-based
Acidovorax temperans = test: Data base search and sterilizing experiment (Example 9); type: cell-based
Rhizobium sp. = test: as above; type: cell-based
[9] = tested on: Gram-negative bacterium near-related to Riemerella; test: as above; type: cell-based
Deinococcus geothermalis [10] = test: Analysis of microbial biota of white water of the machine, factory D (Example 3); conditions: DBNPA treatment
Description: In the paper manufacturing factory D, another machine of a type similar to that used in Example 2 operating under conditions similar to those in Example 2 is installed adjacent to the machine of Example 2. In this machine, no occurrence of pink-colored […] recognized even at the occasion at which the pink-colored slime occurred in the machine of Example 2. Therefore, procedures corresponding to those in Example 1 were proceeded, wherein each 36 strains were isolated using agar medium and analysis of the microbial biota was carried out. Since a large number of strains are to be tested, each 16S rDNA obtained from each strain was treated by digestion with three kinds of restriction enzymes (BstUI, RsaI and HhaI) isolatedly to effect TRFLP analysis, in order to group preliminarily into classes of microbes of same reaction pattern, whereupon identification was effected based on the base sequence as identification parameter. It was recognized thereby that the occupation proportion of Deinococcus geothermalis in the isolated 36 strains was calculated to be only 2.7% (one strain). Since the machine construction is similar, this machine would suffer from same trouble by occurrence of pink-colored slime after a prolonged operation. […]

Deinococcus geothermalis [11] = test: Origin treatment of wet broke chest in paper manufacturing process, Deinococcus geothermalis among 48 isolated strains (Example 9)
Experimental: (§1) Samples were collected at various locations in the paper manufacturing process courses and, for each of them, total microbe cell count was measured by microscope direct count method after staining with DAPI, whereupon 48 strains were isolated by agar plate culture to determine the proportion of existence of Deinococcus geothermalis among the 48 strains based on the base sequence of 16S rDNA. Based on the results of the search for slime conrol agent, the treatment scheme was revised to the operation in which a slime control agent containing HPGHC as the effective component is added as the origin treating agent to the wet broke chest three times a day each at a dose rate of 25 milligrams per liter of the retained liquor (chest capacity), while supplying the white water circulation system with a slime control agent containing DBNPA as the effective component in the conventional manner. At the occasion of the second shut down after the revision of the treatment scheme and at an occasion directly before it, samples were collected at various locations in the paper manufacturing process courses, for which total microbe cell count and the proportion of existence of Deinococcus geothermalis were determined in the same way as the former practice. It was found thereby that the total microbe counts were unchanged and within the range of ordinary fluctuation, but Deinococcus geothermalis became undetectable.

[12] = tested on: total microbe cells / slime; test: Origin treatment of wet broke chest in paper manufacturing process, total cell count and slime deposition (Example 9)
Experimental: as §1

Ralstonia eutropha = type: cell-based; conditions: data base search
[13] = DBNPA 2 mg/l or even lower, contact time 30 minutes
[14] = after HPGHC origin treatment plus DBNPA
[15] = after HPGHC origin treatment plus DBNPA, Clear white water in clear white water pit
[16] = after HPGHC origin treatment plus DBNPA, Dry broke chest
[17] = after HPGHC origin treatment plus DBNPA, Wet broke chest
[18] = after HPGHC origin treatment plus DBNPA, White water in white water silo
[19] = second shut down after revision of the treatment scheme (HPGHC to wet broke chest plus DBNPA)

## O=C(CBr)OCC=CCOC(=O)CBr [BBAB, 1,4-bis-(bromoacetoxy)-2-butene]
Chaetomium elatum
  susceptibility of Chaetomium elatum: non-susceptible

## N#CC(Br)(Br)C(N)=O [DBNPA, 2,2-dibromo-3-nitrilopropionamide]
Deinococcus geothermalis [1]; DBNPA 30 mg/l for 30 minutes
  sterilization of Deinococcus geothermalis: completely not sterilized
Deinococcus geothermalis [1]; data base search
  resistance of Deinococcus geothermalis: resistant
Deinococcus geothermalis [2]
  resistance of Deinococcus geothermalis: resistant
Slime [3]; fifth test cycle, 47th day, No. 3 demonstrator inorganic bromine compound, No. 1 and No. 2 demonstrators DBNPA
  sign of growth of slime in demonstrator: sign of growth of slime was recognized
Slime [3]; simulator supplied with DBNPA-containing agent, after the change of the machine agent
  deposited amount of slime in No. 2 demonstrator: increased gradually
Slime [3]; simulator supplied with DBNPA-containing agent, day after the change of the antimicrobial agent
  occurrence of pink-colored slime in No. 2 demonstrator: visually recognized on the 14th day
[4]
  resistance of dominant microbe (microbe number 2401): resistance
Sphingomonas; [13]
  living microbe cells extinct: 99%
Sphingomonas; data base search
  susceptibility of Shingomonas: susceptible
[5]
  occupation proportion of Deinococcus geothermalis in the entire microbe population: 46%
Slime [6]; DBNPA 2.5 mg/liter contact concentration, three times a day for 15 minutes, 12 days, pH 7.0, 30° C.
  slime layer thickness: 119 μm
Slime in CP tube
  occurrence of defect on paper: removed
  occurrence of slime formation in the CP tube: decreased remarkably
[7]
  susceptibility of all other isolated bacterium strains: susceptible
[8]; data base search, confirmed by sterilizing experiment
  resistance of Microbacterium sp. to the agent: resistance
Acidovorax temperans; [13]
  living microbe cells extinct: 99%
Acidovorax temperans; data base search
  susceptibility of Acidovorax temperans: susceptible
Rhizobium sp.; [13]
  living microbe cells extinct: 99%
Rhizobium sp.; data base search
  susceptibility of Rhizobium Sp.: susceptible
[9]; [13]
  living microbe cells extinct: 99%
[9]; data base search
  susceptibility of Gram-negative bacterium near-related to Riemerella: susceptible
Deinococcus geothermalis [10]; fifth test cycle on the 47th day, 6 of 48 strains
  occupation proportion of Deinococcus geothermalis: 12.5%
Deinococcus geothermalis [10]; up to the fourth test cycles, 48 strains
  occupation proportion of Deinococcus geothermalis: 2-4%
Chaetomium elatum
  susceptibility of Chaetomium elatum: non-susceptible

## O=C(C(Cl)=NO)c1ccc(O)cc1 [HPGHC, 2-(p-hydroxyphenyl)glyoxylohydroximoyl chloride]
Deinococcus geothermalis [1]; HPGHC system internal concentration 20 mg/l for 20 minutes, data base
  sterilization of Deinococcus geothermalis: sterilized
Slime [6]; HPGHC 0.3 mg/liter
  Microbacterium sp. in treated slime (analysis of microbial biota): not detected
  amount of cling substance: remarkably decreased
Slime [6]; HPGHC maintained at 0.3 mg/liter in the system, same test period (12 days)
  slime thickness: 3 μm
Deinococcus geothermalis [11]; [14]
  Deinococcus geothermalis in cling substance from the suction box: no Deinococcus geothermalis detected
Deinococcus geothermalis [11]; [15]
  Number of strains of Deinococcus geothermal is (number of colonies among 48 strains): 0
Deinococcus geothermalis [11]; [16]
  Number of strains of Deinococcus geothermal is (number of colonies among 48 strains): 0
Deinococcus geothermalis [11]; [17]
  Number of strains of Deinococcus geothermal is (number of colonies among 48 strains): 0
Deinococcus geothermalis [11]; [18]
  Number of strains of Deinococcus geothermal is (number of colonies among 48 strains): 0
Deinococcus geothermalis [11]; [19]
  Deinococcus geothermalis in samples from process courses: undetectable
[7]
  susceptibility of all other isolated bacterium strains: susceptible
[8]; from data base for search for antimicrobial agent
  minimum effective concentration: 0.2 mg/L
[12]; HPGHC 25 mg per liter to wet broke chest three times a day plus DBNPA to white water circulation system
  amount of deposition of slime: reduced considerably
[12]; [14]
  total microbe cell count in cling substance from the suction box: 3.5×10^9 cells per one gram of dry substance
[12]; [15]
  Total cell count: 3.1 × 10^7 cells/ml
[12]; [16]
  Total cell count: 6.0 × 10^7 cells/ml
[12]; [17]
  Total cell count: 5.3 × 10^7 cells/ml
[12]; [18]
  Total cell count: 4.8 × 10^7 cells/ml
[12]; [19]
  total microbe counts: unchanged

## OCl [sodium hypochlorite]
Ralstonia eutropha
  ranking of effectiveness for registered Ralstonia eutropha: most effective
